Experimental findings from patent publication US10869899B2, “Isolated cells and populations comprising same for the treatment of CNS diseases” (Ramot at Tel-Aviv University Ltd., priority 2005, dated 2020) are described below.

The test has as its system differentiated hBMSc. The experiment in a line: Effect of IL-1β and cabergoline on GDNF production and secretion (ELISA). It is filed as cell-based, human. Conditions: cabergoline 130 pg/ml, IL-1β 100 pg/ml, added 24 hours after initiation of differentiation, 48 hours. As to the method: Astrocyte differentiation: To induce astrocyte differentiation, 1×10^6 cells were cultured in […]. Cells were replaced with pre-differentiation medium for 48 hours (DMEM supplemented with SPN, 2 mM L-glutamine, 20 ng/ml human epidermal growth factor hEGF (R& D, Systems, Minneapolis, Minn.), 20 ng/ml human basic fibroblast growth factor (hbFGF) and N2 supplement (insulin 5 μg/ml, progesterone 20 nM, putrescin 100 μM, selenium 30 nM, transferrin 100 μg/ml). After 48 hours, the pre-differentiation medium was changed to differentiation medium, (DMEM supplemented with SPN, 2 mM L-glutamine, 1 mM dibutyryl cyclic AMP dbcAMP, 0.5 mM isobutylmethylxanthine IBMX (Sigma-Aldrich, St. Louis, Mo., USA), 5 ng/ml human platelet derived growth factor PDGF (peprotech), and 50 ng/ml human neuregulin 1-β1 NRG1-β1-GGF-2). […]
GDNF and BDNF analysis: At the end of the differentiating procedure described above, supernatant was collected from the plate and cells were harvested and counted. The amount of GDNF or BDNF in the cell's lysate and culture supernatants was quantified by using a GDNF or BDNF ImmunoAssay System (Promega) according to the manufacture's protocol. The absorbance at 450 nm was recorded on the Microplate Reader (BioRad Model 550) and the values were used to produce the curve of the GDNF or BDNF standard. […] ELISA results were calculated according to 10^6 cells per plate.
(In an ELISA, binding on a coated surface is turned into a signal by an enzyme label.)

Turning to “IL-1beta: factor known to upregulate GDNF, added to the differentiation medium”, the “production and secretion of GDNF by differentiated cells following addition” value was “marked enhanced production and secretion of GDNF”.

Turning to `C=CCN1C[C@H](C(=O)N(CCCN(C)C)C(=O)NCC)C[C@@H]2c3cccc4[nH]cc(c34)C[C@H]21` [cabergoline], the “production and secretion of GDNF by differentiated cells following addition” value was “marked enhanced production and secretion of GDNF”.
